# Earlier results as cited in patent US20100063004A1, “TOPICAL PHARMACEUTICAL COMPOSITION” (priority 2006, published 2010).
# How the values were obtained:
# [1] = system: enlargement of the prostate gland; conditions: taken orally
# [2] = system: lipid enveloped viruses such as herpes
# [3] = system: herpes labialis (HSV-1); conditions: 10% n-docosanol suspended in an aqueous system containing a non-ionic surfactant and a carrier; humans with herpes labialis (HSV-1)
smiles,measurement,setting,value
CCCCCCCCCCCCCCCCCCCCCCO [n-docosanol],therapeutic effect in enlargement of the prostate gland,[1],therapeutically effective
same,activity in cell cultures against lipid enveloped viruses,[2],broad activity
same,mean healing time of lesions,[3],shortened
same,solubility in water,,insoluble
